# From patent publication US9242987B2, “Heterocyclyl pyrazolopyrimidine analogues as JAK inhibitors” (Cellzome Limited, priority 2009, dated 2016)
# Assays:
# JAK2 = target: T1, JAK2 (Homo sapiens, UniProt O60674); experiment: Kinobeads assay, JAK2; type: binding; conditions: mixed Molt4/Ramos cell lysate, dot blot detection
# T1 construct: endogenous in cells; host or cells: Mixed Molt4/Ramos lysate (1:2)
# Method in brief: (§1)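 Lysate from Molt4 and Ramos cells combined 1:2 at 10 mg/mL total protein met test compound and an aminopyrido-pyrimidine affinity matrix for 3 h in the cold. Captured JAK2 and JAK3, after elution, were measured by specific-antibody dot blot on an infrared system; dose-response curves yielded IC50.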
# JAK3 = target: T2, JAK3 (Homo sapiens, UniProt P52333); experiment: Kinobeads assay, JAK3; type: binding; conditions: mixed Molt4/Ramos cell lysate, dot blot detection
# T2 construct: endogenous in cells; host or cells: Mixed Molt4/Ramos lysate (1:2)
# T2 sequence (P52333 1-1124): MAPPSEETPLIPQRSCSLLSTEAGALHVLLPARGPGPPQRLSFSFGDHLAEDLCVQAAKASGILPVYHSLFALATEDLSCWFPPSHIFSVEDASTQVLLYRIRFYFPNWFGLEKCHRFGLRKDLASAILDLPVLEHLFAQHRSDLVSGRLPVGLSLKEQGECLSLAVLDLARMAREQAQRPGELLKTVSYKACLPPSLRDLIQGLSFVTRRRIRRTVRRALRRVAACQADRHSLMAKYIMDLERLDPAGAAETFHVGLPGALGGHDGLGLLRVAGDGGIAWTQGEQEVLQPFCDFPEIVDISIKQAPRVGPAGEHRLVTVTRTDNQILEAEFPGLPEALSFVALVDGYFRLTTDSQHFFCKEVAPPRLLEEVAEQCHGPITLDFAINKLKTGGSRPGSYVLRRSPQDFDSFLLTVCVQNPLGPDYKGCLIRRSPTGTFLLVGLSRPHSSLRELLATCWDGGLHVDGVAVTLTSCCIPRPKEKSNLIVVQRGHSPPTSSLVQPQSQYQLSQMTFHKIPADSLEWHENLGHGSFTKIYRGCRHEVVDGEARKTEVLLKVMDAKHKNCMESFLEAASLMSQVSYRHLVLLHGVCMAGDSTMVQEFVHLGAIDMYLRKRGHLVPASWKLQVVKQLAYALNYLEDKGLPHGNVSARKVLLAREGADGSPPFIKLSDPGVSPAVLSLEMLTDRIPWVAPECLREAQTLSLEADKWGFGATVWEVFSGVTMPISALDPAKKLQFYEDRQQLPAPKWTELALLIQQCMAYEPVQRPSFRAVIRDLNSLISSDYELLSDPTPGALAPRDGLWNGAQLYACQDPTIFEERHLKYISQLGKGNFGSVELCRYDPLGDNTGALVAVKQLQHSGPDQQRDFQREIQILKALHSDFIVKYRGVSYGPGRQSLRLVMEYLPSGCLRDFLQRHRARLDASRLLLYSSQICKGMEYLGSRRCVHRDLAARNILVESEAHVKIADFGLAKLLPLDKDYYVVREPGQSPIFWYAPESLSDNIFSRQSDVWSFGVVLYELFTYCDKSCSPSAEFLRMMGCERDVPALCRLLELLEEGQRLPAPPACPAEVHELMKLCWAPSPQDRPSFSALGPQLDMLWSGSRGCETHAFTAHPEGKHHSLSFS
# Method in brief: as §1
# T1 sequence (O60674 whole entry): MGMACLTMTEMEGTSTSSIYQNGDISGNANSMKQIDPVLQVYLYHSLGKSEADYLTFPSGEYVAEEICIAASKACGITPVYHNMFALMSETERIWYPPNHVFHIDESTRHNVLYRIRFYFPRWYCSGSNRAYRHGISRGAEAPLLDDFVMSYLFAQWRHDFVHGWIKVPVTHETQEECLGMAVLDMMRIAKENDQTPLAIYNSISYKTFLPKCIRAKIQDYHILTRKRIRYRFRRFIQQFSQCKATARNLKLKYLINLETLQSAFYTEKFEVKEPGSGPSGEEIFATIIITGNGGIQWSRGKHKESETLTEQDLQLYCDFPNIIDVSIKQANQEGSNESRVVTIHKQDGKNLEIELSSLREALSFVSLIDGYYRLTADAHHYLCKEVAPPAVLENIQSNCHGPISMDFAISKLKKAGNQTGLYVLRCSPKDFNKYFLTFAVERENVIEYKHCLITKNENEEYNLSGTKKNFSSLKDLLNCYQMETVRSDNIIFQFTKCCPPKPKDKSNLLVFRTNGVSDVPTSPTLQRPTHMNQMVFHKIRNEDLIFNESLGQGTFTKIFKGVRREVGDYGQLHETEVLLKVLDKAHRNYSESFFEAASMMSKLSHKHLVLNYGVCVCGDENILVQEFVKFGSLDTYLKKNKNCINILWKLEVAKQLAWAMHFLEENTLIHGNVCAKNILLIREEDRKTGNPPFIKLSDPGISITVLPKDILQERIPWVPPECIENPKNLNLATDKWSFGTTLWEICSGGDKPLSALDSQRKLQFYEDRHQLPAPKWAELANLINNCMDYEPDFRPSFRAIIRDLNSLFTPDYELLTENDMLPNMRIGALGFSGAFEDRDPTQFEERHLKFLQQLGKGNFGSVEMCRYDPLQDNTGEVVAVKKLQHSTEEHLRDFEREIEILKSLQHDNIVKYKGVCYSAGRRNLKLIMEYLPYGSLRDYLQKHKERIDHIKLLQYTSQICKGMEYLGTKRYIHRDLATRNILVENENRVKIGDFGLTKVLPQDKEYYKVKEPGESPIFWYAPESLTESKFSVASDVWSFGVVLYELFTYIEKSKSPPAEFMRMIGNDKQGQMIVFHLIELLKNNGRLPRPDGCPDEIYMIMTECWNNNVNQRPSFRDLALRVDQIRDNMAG
IC50 (JAK2),IC50 (JAK3),SMILES
100 to 1000 nM,< 100 nM,"Cn1cc(Nc2ncc3cnn(Cc4c(F)ccc(F)c4F)c3n2)cn1 [Example 98, N-(1-Methyl-1H-pyrazol-4-yl)-1-(2,3,6-trifluorobenzyl)-1H-pyrazolo[3,4-d]pyrimidin-6-amine]"
≥ 10000 nM,100 to 1000 nM,"Cn1cc(Nc2ncc3cnn(Cc4ccc(F)cc4)c3n2)cn1 [Example 99, 1-(4-Fluorobenzyl)-N-(1-methyl-1H-pyrazol-4-yl)-1H-pyrazolo[3,4-d]pyrimidin-6-amine]"
≥ 10000 nM,100 to 1000 nM,"CC(C)c1cccc(Cn2ncc3cnc(Nc4cnn(C)c4)nc32)c1 [Example 100, 1-(3-Isopropylbenzyl)-N-(1-methyl-1H-pyrazol-4-yl)-1H-pyrazolo[3,4-d]pyrimidin-6-amine]"
1000 to 10000 nM,100 to 1000 nM,"CC(C)c1ccccc1Cn1ncc2cnc(Nc3cnn(C)c3)nc21 [Example 101, 1-(2-Isopropylbenzyl)-N-(1-methyl-1H-pyrazol-4-yl)-1H-pyrazolo[3,4-d]pyrimidin-6-amine]"
1000 to 10000 nM,100 to 1000 nM,"COCCOc1ccccc1Cn1ncc2cnc(Nc3cnn(C)c3)nc21 [Example 102, 1-(2-(2-Methoxyethoxy)benzyl)-N-(1-methyl-1H-pyrazol-4-yl)-1H-pyrazolo[3,4-d]pyrimidin-6-amine]"
1000 to 10000 nM,100 to 1000 nM,"NC(=O)n1cc(Nc2ncc3cnn(Cc4ccccc4F)c3n2)cn1 [Example 103, 4-((1-(2-Fluorobenzyl)-1H-pyrazolo[3,4-d]pyrimidin-6-yl)amino)-1H-pyrazole-1-carboxamide]"

# The remaining lines, values behind:
SMILES,IC50 (JAK2),IC50 (JAK3)
"CC(O)Cn1cc(Nc2ncc3cnn(Cc4ccccc4F)c3n2)cn1 (stereo not drawn) [Example 89, 1-(4-((1-(2-Fluorobenzyl)-1H-pyrazolo[3,4-d]pyrimidin-6-yl)amino)-1H-pyrazol-1-yl)propan-2-ol]",100 to 1000 nM,< 100 nM
"COc1cccc(F)c1Cn1ncc2cnc(Nc3cnn(C)c3)nc21 [Example 90, 1-(2-Fluoro-6-methoxybenzyl)-N-(1-methyl-1H-pyrazol-4-yl)-1H-pyrazolo[3,4-d]pyrimidin-6-amine]",100 to 1000 nM,< 100 nM
"COc1ccc(F)cc1Cn1ncc2cnc(Nc3cnn(C)c3)nc21 [Example 91, 1-(5-Fluoro-2-methoxybenzyl)-N-(1-methyl-1H-pyrazol-4-yl)-1H-pyrazolo[3,4-d]pyrimidin-6-amine]",100 to 1000 nM,< 100 nM
"Cn1cc(Nc2ncc3cnn(Cc4ccccc4CO)c3n2)cn1 [Example 92, (2-((6-((1-Methyl-1H-pyrazol-4-yl)amino)-1H-pyrazolo[3,4-d]pyrimidin-1-yl)methyl)phenyl)methanol]",1000 to 10000 nM,< 100 nM
"COc1cccc(Cn2ncc3cnc(Nc4cnn(C)c4)nc32)c1F [Example 93, 1-(2-Fluoro-3-methoxybenzyl)-N-(1-methyl-1H-pyrazol-4-yl)-1H-pyrazolo[3,4-d]pyrimidin-6-amine]",≥ 10000 nM,100 to 1000 nM
"COc1ccc(F)c(Cn2ncc3cnc(Nc4cnn(C)c4)nc32)c1 [Example 94, 1-(2-Fluoro-5-methoxybenzyl)-N-(1-methyl-1H-pyrazol-4-yl)-1H-pyrazolo[3,4-d]pyrimidin-6-amine]",1000 to 10000 nM,< 100 nM
"CC(=O)n1cc(Nc2ncc3cnn(Cc4ccccc4F)c3n2)cn1 [Example 95, 1-(4-((1-(2-Fluorobenzyl)-1H-pyrazolo[3,4-d]pyrimidin-6-yl)amino)-1H-pyrazol-1-yl)ethanone]",1000 to 10000 nM,< 100 nM
"CS(=O)(=O)n1cc(Nc2ncc3cnn(Cc4ccccc4F)c3n2)cn1 [Example 96, 1-(2-Fluorobenzyl)-N-(1-(methylsulfonyl)-1H-pyrazol-4-yl)-1H-pyrazolo[3,4-d]pyrimidin-6-amine]",≥ 10000 nM,100 to 1000 nM
"Fc1ccccc1Cn1ncc2cnc(Nc3c[nH]nc3Cl)nc21 [Example 97, N-(3-Chloro-1H-pyrazol-4-yl)-1-(2-fluorobenzyl)-1H-pyrazolo[3,4-d]pyrimidin-6-amine]",≥ 10000 nM,100 to 1000 nM
